Test results from patent US20100267750A1, “METHODS AND COMPOSITIONS FOR TREATING PAIN” (priority 2005, published 2010).

Legend:
[1] = Plasma levels / pharmacokinetics in male Sprague-Dawley rat; format: in vivo; details: oral suspension 12 mg/kg
Procedure: Compound 200 plasma levels were determined via HPLC/MS/MS following a single intravenous bolus dose of 0.9 mg/kg, an intraperitoneal dose of 12 mg/kg (suspension), and an oral dose of 12 mg/kg (suspension) in the male Sprague-Dawley rat. […] For intraperitoneal administration, Compound 200 was formulated as a uniform suspension in CMC (carboxymethylcellulose) at a target concentration of 1 mg/mL and administered at a dose volume of 10 mL/kg. For oral administration, Compound 200 was formulated as a uniform suspension in CMC (carboxymethylcellulose), at a target concentration of 1 mg/mL, administered by gavage, at a dose volume of 10 mL/kg, to the conscious, fasted, male Sprague-Dawley rat.

[2] = test system: bradykinin induced tactile allodynia; assay: Bradykinin induced pain model; format: in vivo, rat
Procedure: As outlined above, the bradykinin model involves an intraplantar injection of a 5 ng/uL solution of bradykinin. Injection of the bradykinin solution typically causes a rapid sensitization. Sensitization is measured by assessing the thermal escape latency of the injected paw in response to a mild thermal stimulus delivered by a modified Hargreaves apparatus. FIGS. 1a and 1b summarize data obtained following testing of Compound 200 in the bradykinin model. This study examined the antinociceptive effects of 200 mg/kg, 50 mg/kg, and 12.5 mg/kg intraperitoneal Compound 200 on bradykinin induced tactile allodynia. […] Inhibitor or vehicle were injected intraperitoneally (IP). […] Throughout the study, general behavioral assessments were made during each period of observation. Observations included tactile allodynia (vocalization/agitation induced by light touch applied to the body surface), spontaneous vocalization, biting and chewing of body surface, loss of hind limb placing and stepping reflex, loss of hind limb weight bearing, and loss of righting reflex. Additionally, mechanical allodynia was assessed and measured. The results provided in FIGS. 1a and 1b are based on assessment of mechanical allodynia.

[3] = test system: formalin induced paw flinching; assay: Formalin model of pain; format: in vivo, rat; details: 2% formalin intraplantar, drug 15 min before
Procedure: As outlined above, the formalin model involves injection of a formalin solution intradermally or […]. Injection of formalin solution invokes a biphasic response, and thus provides a model for both nociceptive and inflammatory pain. The formalin model can be used to evaluate the effectiveness of an exemplary TRPA1 inhibitor in the treatment of pain. […] Briefly, the following protocol was followed. Male Holtzmann rats received intraplantar injections of 50 μL of 2% formalin. Paw flinching was detected by an automated sensor detecting movement of a small metal band placed on the injected hind paw. Drug or vehicle was administered approximately 15 minutes prior to the injection of formalin. The animal's response to injection of the irritant was measured by counting flinches per minutes during the Early Phase (the first 5 minutes following injection of formalin), during the Late Phase (approximately 30 minutes after injection of formalin), and during the intervening pain free phase. In FIG. 2, the right most bar for each data set (Early Phase and Late Phase) represents administration of vehicle alone and the left most bar represents administration of gabapentin. […]

[4] = test system: carrageenan-induced inflammation (paw volume); assay: Carrageenan model of acute inflammatory pain; format: in vivo, rat; details: IP, 30-60 minutes before testing
Procedure: In this study, the drug administered was either a TRPA1 inhibitor or the non-steroidal anti-inflammatory diclofenac. Following administration of both carrageenan and drug or vehicle control, paw volume was measured and used to assess decreased inflammation.

[5] = test system: CFA induced thermal hyperalgesia; assay: CFA model of inflammatory pain
Procedure: FIG. 4 summarizes data obtained following testing of Compound 200 in the CFA model. Naive rats were pretested for sensitivity to a heat stimulus in the Hargreaves apparatus. The next day, 100 μL of complete Freund's adjuvant (CFA) was injected into the plantar surface of the right hindpaw. Two days later, in the morning, the rats were again pretested. In the afternoon, rats were injected with either vehicle control or with drug (TRPA1 inhibitor 200 or the non-steroidal anti-inflammatory diclofenac). Drugs or vehicle were injected intraperitoneally, and 45 minutes later rats were tested for hyperalgesia by applying the heat source to the CFA injected and uninjected hindpaw and measuring latency to withdrawal.

[6] = test system: bladder pressure in BOO rats; assay: Partial bladder outlet obstruction (BOO) model of incontinence; details: intravesical infusion
Excerpt: Efficacy of the varying doses of TRPA1 inhibitory compound were compared to controls administered excipients alone (sham control). Efficacy was also compared to rats administered a positive control, such as atropine.
Female Sprague Dawley rats were used in these studies. Rats underwent surgical partial bladder outlet obstruction (BOO) or sham surgery. Five weeks after BOO (or sham) surgery, an intravesical catheter was surgically implanted into the dome of the bladder for conducting urodynamic studies. One week after catheter implantation (6 weeks after BOO or sham), urodynamic studies began. […] An analytic balance beneath the wire-bottom animal cage measured the amount of urine voided during continuous cystometry. […]
For each CMG cycle, the following parameters were assessed: infused volume (the amount of saline or drug infused for each CMG cycle); void volume (the amount of urine voided by the animal for each CMG cycle); minimum pressure (minimum pressure during filling); threshold pressure (pressure prior to micturition when bladder pressure begins to rise steeply); average pressure (average pressure during filling and before threshold); maximum pressure; intermicturition interval (time between two subsequent voiding events); urine flow rate index.

hTRPA1 = biological target: T1, hTRPA1 (Homo sapiens, UniProt O75762, K186N); assay: hTRPA1 Fluo4 calcium flux assay in HEK293/TREx cells; format: cell-based; details: Table 2; read-out: hTRPA1 Fluor IC50
T1 construct: expressed in transfected cells; host or cells: HEK293/TREx (Invitrogen), stably transfected, tetracycline-induced
T1 sequence (O75762 whole entry K186N): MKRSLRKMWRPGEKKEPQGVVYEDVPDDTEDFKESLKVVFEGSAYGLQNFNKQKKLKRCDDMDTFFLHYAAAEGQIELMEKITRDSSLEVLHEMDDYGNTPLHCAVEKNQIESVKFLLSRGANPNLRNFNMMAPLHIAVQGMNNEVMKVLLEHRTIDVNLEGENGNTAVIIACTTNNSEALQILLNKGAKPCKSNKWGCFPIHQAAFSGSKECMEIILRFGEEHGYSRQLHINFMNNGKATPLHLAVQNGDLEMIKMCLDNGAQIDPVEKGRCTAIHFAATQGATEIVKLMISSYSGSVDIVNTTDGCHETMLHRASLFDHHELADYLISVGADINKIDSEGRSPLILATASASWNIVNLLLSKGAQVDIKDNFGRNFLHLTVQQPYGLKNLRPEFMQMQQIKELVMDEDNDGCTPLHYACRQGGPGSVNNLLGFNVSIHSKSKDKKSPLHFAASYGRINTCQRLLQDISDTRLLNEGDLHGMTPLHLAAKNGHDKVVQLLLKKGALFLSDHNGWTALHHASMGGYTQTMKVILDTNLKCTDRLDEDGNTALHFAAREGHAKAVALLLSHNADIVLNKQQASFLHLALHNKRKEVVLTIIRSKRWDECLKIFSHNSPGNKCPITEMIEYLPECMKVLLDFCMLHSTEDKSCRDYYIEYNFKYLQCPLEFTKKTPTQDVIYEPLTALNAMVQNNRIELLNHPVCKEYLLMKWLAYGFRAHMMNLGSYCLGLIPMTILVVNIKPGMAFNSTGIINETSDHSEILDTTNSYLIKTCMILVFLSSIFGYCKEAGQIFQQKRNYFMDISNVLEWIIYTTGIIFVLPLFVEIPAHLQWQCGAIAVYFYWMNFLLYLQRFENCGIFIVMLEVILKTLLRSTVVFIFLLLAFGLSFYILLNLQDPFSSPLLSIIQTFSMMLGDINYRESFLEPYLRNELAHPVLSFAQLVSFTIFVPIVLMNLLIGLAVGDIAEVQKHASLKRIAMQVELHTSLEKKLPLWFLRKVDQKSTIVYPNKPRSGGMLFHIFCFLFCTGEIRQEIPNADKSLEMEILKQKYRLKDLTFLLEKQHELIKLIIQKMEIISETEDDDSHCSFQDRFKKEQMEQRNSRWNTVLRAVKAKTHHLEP
Excerpt: The assay depended on detection of the rise in intracellular Ca^2+ concentration ([Ca^2+]i) following channel activation in cells inducibly expressing the TRPA1 channel. Ca^2+ rise was quantified with the use of fluorescent Ca^2+ indicators that were loaded into cells and thereafter indicated the [Ca^2+]i. Ca^2+ influx followed activation of the TRPA1 channel. Compounds inhibiting the [Ca^2+]i rise were considered hits for further investigation.
These cells were maintained in the growth medium recommended by the manufacturer supplemented with 100 μg/ml hygromycin to promote retention of the TRPA1 construct. After growing to near confluency, cells were plated at a density of ˜25,000 cells/well in 384 well CellBind plates (Corning) in the presence of 1 μg/ml tetracycline, and allowed to grow for 20-30 hrs. A nearly confluent monolayer resulted. […] These controls defined a screening window, and “hits” were defined as those compounds inhibiting the fluorescence response by at least 40%. IC50 values were determined for compounds defined as “hits.” The Fluo4 cell-based fluorescence assay was used to determine the intracellular Ca^2+ concentration in the presence of varying drug concentration. […]

| Structure (SMILES) | time at which Cmax occurred [1] [min] | effect on mechanical threshold after bradykinin injection ([2]; IP 12.5, 50, 200 mg/kg, 30 min before bradykinin) | behavioral parameters ([2]; IP doses up to 200 mg/kg) | sedation ([2]; highest dose (200 mg/kg IP)) | flinches per minute, Early Phase [3] | flinches per minute, Late Phase [3] | paw volume (inflammation) [4] | control paw (uninflamed) sensation ([5]; IP, tested 45 minutes later) | efficacy compared with diclofenac ([5]; IP, tested 45 minutes later) | thermal hyperalgesia, CFA injected paw ([5]; IP, tested 45 minutes later) | toxicity ([5]; rat, in vivo, 45 min) | maximum bladder pressure [6] | threshold bladder pressure [6] | IC50 (hTRPA1) [µM] |
| --- | --- | --- | --- | --- | --- | --- | --- | --- | --- | --- | --- | --- | --- | --- |
| CC(C)c1ccc(NC(=O)Cn2cnc3c2c(=O)n(C)c(=O)n3C)cc1 [Compound 200, 2-(1,3-dimethyl-2,6-dioxo-1,2,3,6-tetrahydropurin-7-yl)-N-(4-isopropylphenyl)acetamide] | 45 | dose dependent effect | no changes | only mild sedation was observed in 3 of 8 rats | substantially reduced | substantially reduced | decreased paw volume | not affected | superior to diclofenac | reduced thermal hyperalgesia | without toxicity | decreased | decreased | – |
| COC(=O)c1ccc(C)c(NC(=O)Cn2cnc3c2c(=O)n(C)c(=O)n3C)c1 [Compound 346] | – | – | – | – | – | – | – | – | – | – | – | – | – | ≤ 30 |
